In PubChem BioAssay AID1963875 (Molecular Pharmacology Branch, DTP, NCI, 2024):

System: KRAS-mutant PDC complex spheroid viability
Test: Anticancer human tumor 186277-243-T-J2-PDC patient-derived colon adenocarcinoma cell line growth inhibition [KRAS2]
Conditions: for IC50: curve of first compound; for viability, T/C: stronger effect = lower value
Text: Multicellular complex tumor spheroid response to RAS pathway inhibitors in combination with a targeted agents in patient-derived cell lines with oncogenic KRAS variants from multiple cancer types
A high-throughput screen of multi-cell type tumor spheroids was designed to identify active combinations of targeted small molecules and KRAS pathway inhibitors. Complex spheroids include a stromal component modeled by human endothelial cells (HUVEC) and fibroblasts modeled by human mesenchymal stem cells (MSCs). The concentration ranges selected for each drug and investigational agent were based upon clinically achievable concentrations if the clinical Cmax of the agent was known.
Compounds. The drugs and investigational agents: BI-3406 (NSC825286), BAY-293 (NSC824723), batoprotafib (TNO155; NSC825523), sotorasib (AMG 510; NSC818433), MRTX1257 (NSC819558), elimusertib (BAY 1895344; NSC800525), molibresib (GSK525762; NSC774829), temuterkib (LY3214996; NSC803410), venetoclax (NSC766270), alisertib (NSC759677), olaparib (NSC753686), talazoparib (NSC767125), erdafitinib (NSC781556), ipatasertib (NSC767898), cabozantinib (NSC761068), nintedanib (NSC756659), abemaciclib (NSC768073), docetaxel (NSC628503), trametinib (NSC758246), and sapanisertib (NSC764658) were obtained from the National Cancer Institute (NCI) Developmental Therapeutics Program Chemical Repository. The FDA-approved anticancer drug set is available from the Developmental Therapeutics Program. […] The stock solutions were prepared in dimethyl sulfoxide (DMSO, Sigma-Aldrich, St. Louis, MO, cat. D2650) at 800-fold the tested concentration and stored at -70 degrees C prior to their use. All drugs and investigational agents were tested over a range starting from a high concentration at or near the clinical Cmax and decreasing in half-log increments. If the clinical Cmax for an agent had not been determined, the highest concentration tested was 10 microM.
Cell Culture. All cells were maintained in an incubator at 37 degrees C and 5% CO2 with 95% humidity. The PDC lines were cultured according to standard operating procedures established by the NCI PDMR (https://pdmr.cancer.gov/sops/default.htm). Briefly, all PDCs were thawed and cultured in Matrigel-coated flasks prepared with a working solution of 1X Ham's F-12 nutrient mix, without supplementation (Invitrogen, Waltham, MA, cat. 11765054), 100 U/mL penicillin-streptomycin (Invitrogen, cat. 15140122), and 2.5% Matrigel (Corning Inc., Corning, NY, cat. 354248) for the first three passages. All PDCs were cultured in complete DMEM/F-12 media containing advanced DMEM/F-12 (Invitrogen, cat. 12634028), 4.9% defined fetal bovine serum, heat inactivated (HyClone Laboratories Inc., Logan, UT, cat. SH30070.03HI), 389 ng/mL hydrocortisone (Sigma-Aldrich, cat. H4001), 9.7 ng/mL human EGF recombinant protein (Invitrogen, cat. PHG0313), 23.4 microg/mL adenine (Sigma-Aldrich, cat. A2786), 97.3 U/mL penicillin-streptomycin (Invitrogen, cat. 15140122), 1.9 mM L-glutamine (Invitrogen, cat. 25030081), and 9.7 microM Y-27632 dihydrochloride (Tocris Bioscience, Bristol, United Kingdom, cat. 1254). The PDCs were cultured in complete DMEM/F12 media without 9.7 microM Y-27632 dihydrochloride for at least two passages prior to the screen. The established cell line HOP-62 was cultured in RPMI 1640 medium, HEPES (Invitrogen, cat. 22400105) with 10% defined fetal bovine serum (HyClone Laboratories Inc., cat. SH30070.03) and 2 mM L-glutamine (Invitrogen, cat. 25030081). The pooled donor HUVEC were cultured in endothelial cell growth medium 2 (PromoCell, Heidelberg, Germany, cat. C-22011) and the hMSC were cultured in mesenchymal stem cell growth medium 2 (PromoCell, cat. C-28009). For all experiments, HUVEC and hMSC were used at passages </=5, while the malignant cell lines were used at passages </=15. […]

[1] = second compound 0.1 µM, first compound 0.0316 µM
[2] = second compound 0.1 µM, first compound 0.1 µM
[3] = second compound 0.1 µM, first compound 0.316 µM
[4] = second compound 0.1 µM, first compound 1 µM
[5] = second compound 0.1 µM, first compound 3.16 µM
[6] = second compound 0.1 µM, first compound 10 µM
[7] = second compound 0.316 µM, first compound 0.0316 µM
[8] = second compound 0.316 µM, first compound 0.1 µM
[9] = second compound 0.316 µM, first compound 0.316 µM
[10] = second compound 0.316 µM, first compound 1 µM
[11] = second compound 0.316 µM, first compound 3.16 µM
[12] = second compound 0.316 µM, first compound 10 µM
[13] = second compound 1 µM, first compound 0.0316 µM
[14] = second compound 1 µM, first compound 0.1 µM
[15] = second compound 1 µM, first compound 0.316 µM
[16] = second compound 1 µM, first compound 1 µM
[17] = second compound 1 µM, first compound 3.16 µM
[18] = second compound 1 µM, first compound 10 µM
[19] = second compound 3.16 µM, first compound 0.0316 µM
[20] = second compound 3.16 µM, first compound 0.1 µM
[21] = second compound 3.16 µM, first compound 0.316 µM
[22] = second compound 3.16 µM, first compound 1 µM
[23] = second compound 3.16 µM, first compound 3.16 µM
[24] = second compound 3.16 µM, first compound 10 µM
[25] = second compound 10 µM, first compound 0.0316 µM
[26] = second compound 10 µM, first compound 0.1 µM
[27] = second compound 10 µM, first compound 0.316 µM
[28] = second compound 10 µM, first compound 1 µM
[29] = second compound 10 µM, first compound 3.16 µM
[30] = second compound 10 µM, first compound 10 µM
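For viability, T/C in this document: viability read after seven days of compound exposure; 100% = DMSO vehicle-treated spheroids so lower means less viable.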

SMILES | IC50 (second compound 0.1 µM) [nM] | IC50 (second compound 0.316 µM) [nM] | IC50 (second compound 1 µM) [nM] | IC50 (second compound 3.16 µM) [nM] | IC50 (second compound 10 µM) [nM] | viability, T/C [1] [%] | viability, T/C [2] [%] | viability, T/C [3] [%] | viability, T/C [4] [%] | viability, T/C [5] [%] | viability, T/C [6] [%] | viability, T/C [7] [%] | viability, T/C [8] [%] | viability, T/C [9] [%] | viability, T/C [10] [%] | viability, T/C [11] [%] | viability, T/C [12] [%] | viability, T/C [13] [%] | viability, T/C [14] [%] | viability, T/C [15] [%] | other results
COC(=O)c1ccc2c(C(=Nc3ccc(N(C)C(=O)CN4CCN(C)CC4)cc3)c3ccccc3)c(O)[nH]c2c1 + C=CC(=O)N1CCN(c2nc(=O)n(-c3c(C)ccnc3C(C)C)c3nc(-c4c(O)cccc4F)c(F)cc23)C(C)C1 | 2130 | 882 | 1570 | 462 | 204 | 95.6 | 93 | 94.4 | 104 | 25.4 | 12.7 | 87.5 | 96.1 | 97.7 | 44.6 | 19.7 | 6.92 | 96 | 92.9 | 102 | viability, T/C [16]: 73%; viability, T/C [17]: 13.7%; viability, T/C [18]: 3.67%; viability, T/C [19]: 96.1%; viability, T/C [20]: 96.8%; viability, T/C [21]: 53.5%; viability, T/C [22]: 33.5%; viability, T/C [23]: 6.72%; viability, T/C [24]: 3.16%; viability, T/C [25]: 56.1%; viability, T/C [26]: 63.4%; viability, T/C [27]: 43.5%; viability, T/C [28]: 12.5%; viability, T/C [29]: 1.11%; viability, T/C [30]: 0.14%
O=C(c1cc(Cc2n[nH]c(=O)c3ccccc23)ccc1F)N1CCN(C(=O)C2CC2)CC1 + C=CC(=O)N1CCN(c2nc(=O)n(-c3c(C)ccnc3C(C)C)c3nc(-c4c(O)cccc4F)c(F)cc23)C(C)C1 | 2020 | 4920 | 6630 | 5740 | 1400 | 108 | 111 | 98.6 | 78 | 31.4 | 22.7 | 105 | 101 | 107 | 96.6 | 60.6 | 33.1 | 96.5 | 96.8 | 103 | viability, T/C [16]: 107%; viability, T/C [17]: 74.6%; viability, T/C [18]: 36.4%; viability, T/C [19]: 95.7%; viability, T/C [20]: 106%; viability, T/C [21]: 101%; viability, T/C [22]: 89.1%; viability, T/C [23]: 67%; viability, T/C [24]: 34.6%; viability, T/C [25]: 78%; viability, T/C [26]: 82.6%; viability, T/C [27]: 68.8%; viability, T/C [28]: 51.4%; viability, T/C [29]: 40.2%; viability, T/C [30]: 17.9%
